According to patent US20060110790A1, “Expression system for large functional proteins” (priority 2002, published 2006):

What was measured:
Format in all cases: binding
full-length ABCR = full-length ABCR (Homo sapiens, UniProt P78363); experiment: 8-azido-ATP photoaffinity labeling of membranes from transfected cells; design: Membranes from transfected cells expressing either full-length ABCR (lanes 1 & 2); expressed in transfected cells; host or cells: transfected cells (COS-1 or EBNA293); settings: 1 mM ATP added prior to photoaffinity labeling; 1.5 μM 8-azido-[α-32P]ATP; FIG. 5A lane 2
full-length ABCR, sequence (P78363 whole entry): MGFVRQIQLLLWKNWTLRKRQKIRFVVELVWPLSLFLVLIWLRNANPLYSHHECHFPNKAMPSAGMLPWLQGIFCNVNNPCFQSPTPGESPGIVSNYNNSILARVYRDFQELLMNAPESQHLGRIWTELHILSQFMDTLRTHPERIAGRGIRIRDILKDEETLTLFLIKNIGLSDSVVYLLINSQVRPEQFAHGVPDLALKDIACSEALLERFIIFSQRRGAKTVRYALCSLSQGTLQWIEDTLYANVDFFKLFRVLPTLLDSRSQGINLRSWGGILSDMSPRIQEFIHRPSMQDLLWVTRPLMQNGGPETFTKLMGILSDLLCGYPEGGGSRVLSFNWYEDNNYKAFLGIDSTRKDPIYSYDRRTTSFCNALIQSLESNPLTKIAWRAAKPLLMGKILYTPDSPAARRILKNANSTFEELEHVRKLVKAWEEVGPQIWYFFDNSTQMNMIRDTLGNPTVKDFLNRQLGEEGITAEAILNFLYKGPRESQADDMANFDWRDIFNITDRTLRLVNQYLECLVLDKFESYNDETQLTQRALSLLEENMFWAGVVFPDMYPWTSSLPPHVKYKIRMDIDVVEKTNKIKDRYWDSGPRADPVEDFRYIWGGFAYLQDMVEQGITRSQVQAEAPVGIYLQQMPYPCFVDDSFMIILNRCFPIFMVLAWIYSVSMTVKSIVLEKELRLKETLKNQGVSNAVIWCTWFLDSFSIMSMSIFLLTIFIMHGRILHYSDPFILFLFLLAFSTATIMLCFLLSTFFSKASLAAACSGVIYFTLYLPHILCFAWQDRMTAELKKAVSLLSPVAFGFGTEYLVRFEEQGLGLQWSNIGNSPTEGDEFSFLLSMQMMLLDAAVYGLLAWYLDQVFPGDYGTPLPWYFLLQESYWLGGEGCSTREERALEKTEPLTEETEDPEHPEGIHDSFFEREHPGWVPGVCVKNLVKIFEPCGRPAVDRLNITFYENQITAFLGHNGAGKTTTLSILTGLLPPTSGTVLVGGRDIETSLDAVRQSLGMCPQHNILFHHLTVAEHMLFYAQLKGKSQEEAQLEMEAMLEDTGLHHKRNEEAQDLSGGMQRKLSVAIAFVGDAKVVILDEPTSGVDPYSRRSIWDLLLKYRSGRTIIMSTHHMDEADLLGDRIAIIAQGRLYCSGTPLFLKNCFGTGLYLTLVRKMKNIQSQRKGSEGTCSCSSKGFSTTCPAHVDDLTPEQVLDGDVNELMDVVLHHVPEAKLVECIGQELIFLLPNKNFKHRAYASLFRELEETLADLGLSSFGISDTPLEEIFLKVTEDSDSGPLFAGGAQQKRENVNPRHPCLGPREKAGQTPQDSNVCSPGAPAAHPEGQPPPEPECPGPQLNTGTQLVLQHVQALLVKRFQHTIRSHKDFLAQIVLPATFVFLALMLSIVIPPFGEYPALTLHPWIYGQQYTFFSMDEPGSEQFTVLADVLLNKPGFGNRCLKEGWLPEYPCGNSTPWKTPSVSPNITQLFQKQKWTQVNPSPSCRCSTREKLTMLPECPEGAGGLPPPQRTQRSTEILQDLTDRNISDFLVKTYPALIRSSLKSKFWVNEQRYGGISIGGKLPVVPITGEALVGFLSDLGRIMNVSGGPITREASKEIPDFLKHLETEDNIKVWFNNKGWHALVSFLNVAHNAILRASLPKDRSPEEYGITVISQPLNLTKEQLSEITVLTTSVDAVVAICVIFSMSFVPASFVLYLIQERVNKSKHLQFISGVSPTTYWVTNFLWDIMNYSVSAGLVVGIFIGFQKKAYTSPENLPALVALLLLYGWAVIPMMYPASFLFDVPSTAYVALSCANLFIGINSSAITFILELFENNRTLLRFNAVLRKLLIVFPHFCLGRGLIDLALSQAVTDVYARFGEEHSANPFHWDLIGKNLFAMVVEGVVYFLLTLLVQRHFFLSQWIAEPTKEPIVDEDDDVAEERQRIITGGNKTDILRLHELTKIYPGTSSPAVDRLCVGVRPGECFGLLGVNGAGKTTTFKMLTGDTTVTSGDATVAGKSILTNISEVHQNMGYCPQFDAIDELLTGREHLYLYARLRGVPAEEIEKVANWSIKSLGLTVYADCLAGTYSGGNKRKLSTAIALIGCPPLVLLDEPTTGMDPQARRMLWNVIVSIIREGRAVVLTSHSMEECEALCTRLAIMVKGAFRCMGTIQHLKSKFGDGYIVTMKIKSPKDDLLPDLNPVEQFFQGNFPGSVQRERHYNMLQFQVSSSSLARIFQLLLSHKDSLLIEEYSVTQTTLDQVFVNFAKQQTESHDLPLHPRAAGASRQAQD
Method: (§1) FIG. 5. Azido-ATP photoaffinity labeling of the N and C halves of ABCR. A. Membranes from transfected cells expressing either full-length ABCR (lanes 1 & 2) or co-expressing the N and C halves (lanes 3 & 4) were photoaffinity labeled with 1.5 μM 8-azido-[α-^32P]ATP in the absence or presence of 1 mM ATP. The expressed protein was isolated on a Rim3F4-Sepharose matrix prior to analysis by SDS-PAGE and phosphorimage analysis. Left panel: Coomassie blue stained gel. Right panel: Azido-ATP labeling. B. Membranes from transfected cells expressing full-length ABCR, the N-half, the C-half, or both halves (NC halves) were labeled with 8-azido-[α-^32P] and isolated as above. Similar amounts of protein were loaded in each lane of the gel as judged by staining with Coomassie brilliant blue (not shown). C. Rod outer segment membranes were incubated with (+) or without (−) trypsin and subsequently labeled with azido-[α-^32P]ATP. ABCR and the associated N and C complex were purified on a Rim3F4-Sepharose matrix. Left panel: Azido-ATP labeling of the full-length ABCR (220 kDa) and the C-half (114 kDa); N-half was not labeled. Right panel: Western blots labeled for the full-length ABCR and C-half with the Rim3F4 antibody and the N-half with the Rim5B4 antibody. […]

[1] = target: T1, co-expressed N and C halves of ABCR (Homo sapiens, UniProt P78363); experiment: as above; settings: 1 mM ATP added prior to photoaffinity labeling; 1.5 μM 8-azido-[α-32P]ATP; C-half labeled; FIG. 5A lane 4
T1 construct: The cDNAs coding for the N-half (amino acids 1-1325) and C-half (amino acids 1326-2273) of ABCR; made in house; host or cells: COS-1 cells, co-transfected
T1 sequence (P78363 1-1325): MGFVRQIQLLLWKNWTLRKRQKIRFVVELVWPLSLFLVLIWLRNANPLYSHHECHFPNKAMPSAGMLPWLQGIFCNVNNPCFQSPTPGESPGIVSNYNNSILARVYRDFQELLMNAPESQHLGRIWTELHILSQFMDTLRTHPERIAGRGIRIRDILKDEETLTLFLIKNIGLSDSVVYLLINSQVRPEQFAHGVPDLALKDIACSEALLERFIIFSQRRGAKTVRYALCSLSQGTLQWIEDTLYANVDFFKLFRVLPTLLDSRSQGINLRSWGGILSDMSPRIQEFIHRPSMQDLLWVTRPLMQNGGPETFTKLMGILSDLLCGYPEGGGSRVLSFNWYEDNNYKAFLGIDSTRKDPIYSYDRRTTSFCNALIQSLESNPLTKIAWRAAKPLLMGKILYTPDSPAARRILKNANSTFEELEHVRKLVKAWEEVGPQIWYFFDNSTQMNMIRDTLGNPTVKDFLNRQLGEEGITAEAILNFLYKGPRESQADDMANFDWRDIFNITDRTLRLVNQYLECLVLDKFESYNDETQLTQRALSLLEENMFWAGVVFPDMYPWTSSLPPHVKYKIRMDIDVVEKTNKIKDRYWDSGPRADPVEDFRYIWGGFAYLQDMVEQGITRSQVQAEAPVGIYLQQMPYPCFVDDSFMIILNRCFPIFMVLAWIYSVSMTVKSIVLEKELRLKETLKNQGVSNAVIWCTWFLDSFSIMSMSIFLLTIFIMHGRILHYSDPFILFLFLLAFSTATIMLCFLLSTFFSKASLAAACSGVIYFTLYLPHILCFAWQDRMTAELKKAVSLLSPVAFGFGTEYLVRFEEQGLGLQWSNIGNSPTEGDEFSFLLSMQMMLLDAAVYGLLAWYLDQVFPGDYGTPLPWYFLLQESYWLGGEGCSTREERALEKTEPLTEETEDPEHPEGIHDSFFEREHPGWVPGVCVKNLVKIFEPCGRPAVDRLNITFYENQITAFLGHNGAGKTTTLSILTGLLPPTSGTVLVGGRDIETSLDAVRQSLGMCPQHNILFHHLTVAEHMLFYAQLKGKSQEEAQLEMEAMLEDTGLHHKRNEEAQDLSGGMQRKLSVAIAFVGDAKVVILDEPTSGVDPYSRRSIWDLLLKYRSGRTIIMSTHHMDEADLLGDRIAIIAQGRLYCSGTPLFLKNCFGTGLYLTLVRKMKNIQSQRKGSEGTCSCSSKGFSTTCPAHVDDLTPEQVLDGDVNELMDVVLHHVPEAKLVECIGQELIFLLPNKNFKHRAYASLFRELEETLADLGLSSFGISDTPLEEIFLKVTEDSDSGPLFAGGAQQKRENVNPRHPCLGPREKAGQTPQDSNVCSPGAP
T1 sequence (P78363 1326-2273): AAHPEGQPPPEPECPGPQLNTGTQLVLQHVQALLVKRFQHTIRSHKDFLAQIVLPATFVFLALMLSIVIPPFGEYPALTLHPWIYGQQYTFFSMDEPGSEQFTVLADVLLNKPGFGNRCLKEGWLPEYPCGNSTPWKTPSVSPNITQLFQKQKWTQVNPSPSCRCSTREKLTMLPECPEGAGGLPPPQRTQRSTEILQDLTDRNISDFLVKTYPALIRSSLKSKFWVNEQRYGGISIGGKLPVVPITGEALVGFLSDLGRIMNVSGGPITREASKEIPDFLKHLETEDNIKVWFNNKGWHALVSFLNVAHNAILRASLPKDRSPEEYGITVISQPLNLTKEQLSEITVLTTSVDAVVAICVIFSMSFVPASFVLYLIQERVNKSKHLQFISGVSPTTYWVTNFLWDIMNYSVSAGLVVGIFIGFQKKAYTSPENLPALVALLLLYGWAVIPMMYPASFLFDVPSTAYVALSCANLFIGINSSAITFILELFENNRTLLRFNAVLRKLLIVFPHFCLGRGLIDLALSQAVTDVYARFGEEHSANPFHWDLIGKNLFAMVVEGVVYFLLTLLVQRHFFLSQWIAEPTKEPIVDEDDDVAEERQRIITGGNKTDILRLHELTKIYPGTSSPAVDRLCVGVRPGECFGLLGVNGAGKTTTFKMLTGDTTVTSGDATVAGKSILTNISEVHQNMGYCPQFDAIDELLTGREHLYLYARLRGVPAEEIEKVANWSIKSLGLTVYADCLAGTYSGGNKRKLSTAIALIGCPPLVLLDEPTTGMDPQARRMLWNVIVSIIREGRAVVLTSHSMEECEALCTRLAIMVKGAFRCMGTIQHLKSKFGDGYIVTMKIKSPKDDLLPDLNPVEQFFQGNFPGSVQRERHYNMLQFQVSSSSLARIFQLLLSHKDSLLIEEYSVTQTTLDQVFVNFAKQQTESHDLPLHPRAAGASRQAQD
Method: as §1

ABCR = target: T2, ABCR (Homo sapiens, UniProt P78363); experiment: 8-azido-ATP/ADP nucleotide trapping in membranes from transfected cells; settings: 800 μM orthovanadate, 5 μM 8-azido-[α-32P]ATP, 37° C.
T2 construct: Membranes from transfected cells expressing either full-length ABCR (lanes 1 & 2) or co-expressing the N and C halves; expressed in transfected cells; host or cells: transfected cells (COS-1 or EBNA293)
T2 sequence (P78363 whole entry): as the sequence (P78363 whole entry) above
Method: FIG. 7. Nucleotide trapping by ABCR and co-expressed N and C halves. A. Effect of orthovanadate on nucleotide trapping. Membranes from transfected cells were incubated with 5 μM 8-azido-[α-^32P]ATP at 37° C., washed, and tightly bound nucleotides were UV crosslinked. Lane 1, full-length ABCR; lane 2, full-length ABCR incubated with 800 μM orthovanadate; lane 3, co-expressed N and C halves; lane 4, co-expressed N- and C-halves incubated with 800 μM orthovanadate. B. Effect of temperature and retinal on nucleotide trapping. Lane 1, full-length ABCR labeled at 0° C.; lane 2, full-length ABCR labeled at 37° C.; lane 3, full-length ABCR labeled at 37° C. in the presence of 50 μM all-trans retinal; lane 4, co-expressed N and C halves labeled at 0° C.; lane 5, co-expressed N and C halves labeled at 37° C.; lane 6, co-expressed N and C halves labeled at 37° C. in the presence of 50 μM all-trans retinal.
8-Azido-ATP Trapping—Membranes were incubated with 5 μM 8-azido-[α-^32P]ATP in 50 μl of labeling buffer with or without 800 μM sodium orthovanadate for 10 min at 37° C. All-trans retinal and 50 μM DTT were added where indicated. Binding was stopped by the addition of ice-cold 20 mM Tris-HCl, pH 7.4, the membranes were collected by centrifugation and washed one more time. Samples exposed to orthovanadate were washed in the presence of 800 μM orthovanadate. […]

| effect on 8-azido-ATP labeling (full-length ABCR) | effect on 8-azido-ATP labeling [1] | effect on 8-azido ATP/ADP trapping (ABCR) | Structure (SMILES) |
| --- | --- | --- | --- |
| essentially abolished | essentially abolished |  | Nc1ncnc2c1ncn2[C@@H]1O[C@H](COP(=O)(O)OP(=O)(O)OP(=O)(O)O)[C@@H](O)[C@H]1O [ATP] |
|  |  | not dependent | [Na+].[Na+].[Na+].[O]=[V]([O-])([O-])[O-] [sodium orthovanadate] |
